This note sets out measurements from ChEMBL document CHEMBL4152336, “Optimization of the first small-molecule relaxin/insulin-like family peptide receptor (RXFP1) agonists: Activation results in an antifibrotic gene expression profile” (Eur J Med Chem, 2018).

pEC50: −log10 of the molar value. In brackets after ≈: the same amount, converted by molar mass.

What is called pEC50 is the negative decadic logarithm of the EC50, by convention in mol/L.

One series addresses T1, Relaxin receptor 1 (Homo sapiens, UniProt Q9HBX9).
T1 sequence (Q9HBX9 whole entry): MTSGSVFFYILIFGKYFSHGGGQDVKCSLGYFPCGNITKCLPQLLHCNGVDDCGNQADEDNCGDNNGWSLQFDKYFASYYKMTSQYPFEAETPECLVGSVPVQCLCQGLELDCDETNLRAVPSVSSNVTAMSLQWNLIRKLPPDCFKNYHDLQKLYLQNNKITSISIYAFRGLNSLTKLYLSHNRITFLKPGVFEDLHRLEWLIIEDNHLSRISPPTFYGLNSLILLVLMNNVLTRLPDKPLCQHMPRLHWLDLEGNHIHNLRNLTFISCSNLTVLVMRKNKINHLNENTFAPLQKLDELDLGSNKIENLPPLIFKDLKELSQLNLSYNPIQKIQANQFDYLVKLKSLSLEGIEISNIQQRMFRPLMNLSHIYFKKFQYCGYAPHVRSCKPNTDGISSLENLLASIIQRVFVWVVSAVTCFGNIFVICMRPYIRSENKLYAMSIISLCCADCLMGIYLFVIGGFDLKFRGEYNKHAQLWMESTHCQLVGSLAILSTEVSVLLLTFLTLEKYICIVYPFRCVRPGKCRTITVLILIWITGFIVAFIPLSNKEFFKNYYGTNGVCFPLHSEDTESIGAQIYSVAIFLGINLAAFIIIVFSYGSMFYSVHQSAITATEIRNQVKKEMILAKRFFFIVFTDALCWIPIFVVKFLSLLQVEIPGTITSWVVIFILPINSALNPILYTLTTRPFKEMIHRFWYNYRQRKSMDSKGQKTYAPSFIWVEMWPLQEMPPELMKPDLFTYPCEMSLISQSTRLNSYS
It is filed as functional, cell-based, HEK293. To be noted: read-out: EC50.

Series [1] in a line: Aqueous kinetic solubility of the compound in PBS by shake-flask method. Format: physicochemical. To be noted: for solubility kinetic: PBS, read-out: Kinetic_solubility.
The target in series [2] is T2, Relaxin receptor 1 (Homo sapiens) (UniProt Q9HBX9).
T2 sequence (whole entry): T1 sequence (Q9HBX9 whole entry)
It is filed as functional, cell-based. The following applies: HEK293.

A further series relates to HEK293. As to the kind of experiment: Cytotoxicity against HEK293 cells assessed as reduction in cell viability by measuring ATP level by ATPlite assay. It is filed as cell-based. To be noted: Homo sapiens.
The conditions of series [3]: rat, microsomes.
Description: Half life in rat liver microsomes
A short description of series [4]: Metabolic stability in mouse liver microsomes assessed as parent compound remaining after 60 mins. The following applies: read-out: Stability. Format: ADME, microsome.

For the compound `CCCOc1ccccc1C(=O)Nc1ccccc1C(=O)Nc1cccc(S(=O)(=O)C(F)(F)F)c1`, the pEC50 at Relaxin receptor 1 was 7.28; in the series with HEK293 it was 5.03. For the same compound, the solubility kinetic in series [1] is 17 µM (≈ 8.61 µg/mL). The same compound had an Efficacy in series [2] of 98%. In addition, the t1/2 in series [3] was 26.8 min.
For the compound `O=C(Nc1ccccc1C(=O)Nc1ccccc1C(=O)NCc1ccco1)c1ccco1`, the remaining at 1 h in series [4] worked out at 2%. In series [1] (buffer), this compound registered a Kinetic_solubility of 3.7 µM.
On to `O=C(Nc1cccc(C(F)(F)F)c1)c1ccccc1NC(=O)C1CCCCC1`, for which the remaining at 1 h in series [4] is 70%. Also, the pEC50 on Relaxin receptor 1 was 5.73. In series [2], this compound gave an Efficacy of 92%.
With `CCCCOc1ccccc1C(=O)Nc1ccccc1C(=O)Nc1cccc(S(=O)(=O)C(F)(F)F)c1`, the negative-log EC50 (pEC50) on Relaxin receptor 1 is 7.33. The solubility kinetic in series [1] came out at 5.3 µM (≈ 2.76 µg/mL). In addition, in series [2], the Efficacy was 98%. The same compound returned a t1/2 in series [3] of 19.5 min.
